{
  "source": "paper PMC10657792",
  "about": "“Downstream Allosteric Modulation of NMDA Receptors by 3-Benzazepine Derivatives” (Molecular Neurobiology, 2023)",
  "key": {"[1]": {"molecular_target": "GluN1a wt/ GluN2B F114A (Rattus norvegicus, UniProt P35439+Q00960, F114A)", "sequence (Q00960 27-1482 F114A, other chains not shown)": "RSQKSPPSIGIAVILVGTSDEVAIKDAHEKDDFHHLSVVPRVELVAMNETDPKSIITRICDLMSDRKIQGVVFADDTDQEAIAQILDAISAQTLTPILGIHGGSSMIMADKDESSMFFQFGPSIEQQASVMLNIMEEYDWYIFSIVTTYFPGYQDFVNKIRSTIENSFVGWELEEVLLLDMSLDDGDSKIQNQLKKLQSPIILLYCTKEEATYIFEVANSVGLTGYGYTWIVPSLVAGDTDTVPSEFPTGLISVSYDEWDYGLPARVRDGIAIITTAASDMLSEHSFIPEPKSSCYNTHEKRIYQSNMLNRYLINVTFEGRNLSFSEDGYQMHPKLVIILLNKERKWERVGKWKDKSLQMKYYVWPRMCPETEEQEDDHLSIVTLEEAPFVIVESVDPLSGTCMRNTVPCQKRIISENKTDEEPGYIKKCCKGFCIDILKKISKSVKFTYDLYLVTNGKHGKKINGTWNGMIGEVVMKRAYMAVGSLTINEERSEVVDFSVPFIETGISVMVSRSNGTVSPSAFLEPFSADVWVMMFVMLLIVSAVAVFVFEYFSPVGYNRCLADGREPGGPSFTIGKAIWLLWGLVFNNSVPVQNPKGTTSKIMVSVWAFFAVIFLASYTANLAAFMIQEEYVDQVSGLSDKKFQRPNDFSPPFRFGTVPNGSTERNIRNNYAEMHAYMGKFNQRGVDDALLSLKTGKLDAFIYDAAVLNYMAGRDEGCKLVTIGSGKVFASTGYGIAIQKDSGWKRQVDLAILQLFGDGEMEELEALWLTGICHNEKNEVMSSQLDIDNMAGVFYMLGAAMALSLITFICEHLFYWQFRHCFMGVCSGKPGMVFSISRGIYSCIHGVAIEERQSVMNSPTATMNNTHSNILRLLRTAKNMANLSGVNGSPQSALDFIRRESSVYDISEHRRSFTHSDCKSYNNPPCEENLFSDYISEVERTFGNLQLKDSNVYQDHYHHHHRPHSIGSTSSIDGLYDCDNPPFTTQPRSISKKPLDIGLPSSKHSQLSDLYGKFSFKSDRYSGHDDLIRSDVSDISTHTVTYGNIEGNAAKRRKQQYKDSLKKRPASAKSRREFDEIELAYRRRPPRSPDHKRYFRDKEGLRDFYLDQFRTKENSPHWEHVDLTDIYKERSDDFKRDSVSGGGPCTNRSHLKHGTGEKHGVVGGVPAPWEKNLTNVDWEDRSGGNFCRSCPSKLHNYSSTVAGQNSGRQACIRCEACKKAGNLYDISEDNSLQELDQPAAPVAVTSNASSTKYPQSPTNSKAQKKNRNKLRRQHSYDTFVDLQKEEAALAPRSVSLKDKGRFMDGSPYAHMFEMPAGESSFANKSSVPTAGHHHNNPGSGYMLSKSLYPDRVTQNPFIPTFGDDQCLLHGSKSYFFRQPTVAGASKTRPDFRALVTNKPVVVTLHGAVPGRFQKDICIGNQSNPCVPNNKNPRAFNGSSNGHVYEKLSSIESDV", "assay": "TEVC recording in X. laevis oocytes, GluN2B mutant screening", "assay_type": "cell-based", "conditions": "fitted curve"}, "[2]": {"molecular_target": "GluN1a wt/ GluN2B F194A (Rattus norvegicus, UniProt P35439+Q00960, F194A)", "sequence (Q00960 27-1482 F194A, other chains not shown)": "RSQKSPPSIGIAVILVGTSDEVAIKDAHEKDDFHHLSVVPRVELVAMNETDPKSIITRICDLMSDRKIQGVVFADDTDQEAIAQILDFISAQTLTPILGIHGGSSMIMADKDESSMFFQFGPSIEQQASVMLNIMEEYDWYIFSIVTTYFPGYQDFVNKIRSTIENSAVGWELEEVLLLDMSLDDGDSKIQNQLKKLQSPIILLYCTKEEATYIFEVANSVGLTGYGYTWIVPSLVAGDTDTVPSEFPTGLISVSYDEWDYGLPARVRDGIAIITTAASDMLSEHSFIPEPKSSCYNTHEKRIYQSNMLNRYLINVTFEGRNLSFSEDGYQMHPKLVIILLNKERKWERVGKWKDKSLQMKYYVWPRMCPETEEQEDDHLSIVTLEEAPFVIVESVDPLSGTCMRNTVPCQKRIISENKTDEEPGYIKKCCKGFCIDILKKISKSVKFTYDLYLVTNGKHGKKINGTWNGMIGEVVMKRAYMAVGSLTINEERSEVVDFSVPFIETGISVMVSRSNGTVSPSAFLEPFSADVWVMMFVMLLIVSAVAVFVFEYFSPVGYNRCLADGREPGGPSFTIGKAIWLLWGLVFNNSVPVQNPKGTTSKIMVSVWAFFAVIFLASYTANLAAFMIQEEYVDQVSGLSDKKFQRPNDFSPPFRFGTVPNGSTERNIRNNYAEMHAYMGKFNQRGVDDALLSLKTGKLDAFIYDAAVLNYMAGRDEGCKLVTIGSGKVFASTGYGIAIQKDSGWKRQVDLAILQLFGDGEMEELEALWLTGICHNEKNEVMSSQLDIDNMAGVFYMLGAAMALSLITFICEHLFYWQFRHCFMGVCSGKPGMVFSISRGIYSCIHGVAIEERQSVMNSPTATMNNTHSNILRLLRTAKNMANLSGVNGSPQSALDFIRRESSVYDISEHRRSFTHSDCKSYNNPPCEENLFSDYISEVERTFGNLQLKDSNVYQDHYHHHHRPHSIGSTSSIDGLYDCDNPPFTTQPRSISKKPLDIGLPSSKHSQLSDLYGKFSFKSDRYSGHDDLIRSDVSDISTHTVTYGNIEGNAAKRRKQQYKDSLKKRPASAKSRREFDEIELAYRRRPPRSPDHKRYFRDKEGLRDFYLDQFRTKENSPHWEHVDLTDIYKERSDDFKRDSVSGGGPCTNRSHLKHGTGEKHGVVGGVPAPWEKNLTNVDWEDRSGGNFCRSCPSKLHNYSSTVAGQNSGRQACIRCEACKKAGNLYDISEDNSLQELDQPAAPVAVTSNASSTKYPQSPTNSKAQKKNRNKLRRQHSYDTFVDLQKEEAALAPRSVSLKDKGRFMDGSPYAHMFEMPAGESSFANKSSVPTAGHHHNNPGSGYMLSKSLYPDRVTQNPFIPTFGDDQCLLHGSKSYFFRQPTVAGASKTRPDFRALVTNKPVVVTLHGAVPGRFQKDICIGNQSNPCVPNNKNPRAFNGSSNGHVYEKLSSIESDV", "assay": "TEVC recording in X. laevis oocytes, GluN2B mutant screening", "assay_type": "cell-based", "conditions": "fitted curve", "protocol": "(§1) Single point mutations were incorporated into template DNA (GluN1-1b wt/ pSGEM and GluN2B wt/ pSGEM) by using the QuikChange II XL site-directed mutagenesis kit (Agilent Technologies, Germany). Mutagenesis primers were designed using the QuikChange Primer Design Program (Agilent) and provided by Microsynth (Microsynth AG, Balgach, Switzerland). For mutation of the desired amino acid in the gene, PCR amplification was performed with the respective mutagenesis primers (Eppendorf MasterCycler Gradient, Eppendorf Hamburg, Germany). Mutations were verified by automated DNA sequencing. Constructs were linearized with PacI (GluN1) or NheI (GluN2B). cRNA was prepared byin vitrotranscription using the mMessage mMachine T7 kit (Life Technologies, Darmstadt, Germany).\n(§2) The NMDAR was expressed in stage V and VI oocytes originated from X. laevis. Oocytes were provided by Ecocyte Bioscience (Dortmund, Germany), and equimolar amounts of wild-type and mutated GluN1 and GluN2B cRNA were injected (0.8 ng each). The oocytes were incubated in Barth’s solution, containing (mmol l^−1): 88 NaCl, 1 KCl, 0.4 CaCl2, 0.33 Ca(NO3)2, 0.6 MgSO4, 5 TRIS–HCl, 2.4 NaHCO3, supplemented with 80 mg l^−1 theophylline, 63 mg l^−1 benzylpenicillin, 40 mg l^−1 streptomycin, and 100 mg l^−1 gentamycin and maintained at 18 °C until usage. After injection, the oocytes were incubated for 5 days at 18 °C. Subsequently, the activity of the expressed NMDARs in the oocytes was recorded by two-electrode voltage clamp (TEVC).\n(§3) The compounds were retrieved as 10 mM stock solutions in DMSO and were subsequently diluted with agonist solution and adjusted to 0.1% DMSO concentration. Inhibition of each compound was measured via TEVC in X. laevis oocytes at room temperature using a Turbo Tec 10CX amplifier (NPI electronic, Tamm, Germany), NI USB 6221 DA/AD Interface (National Instruments, Austin, USA), and GePulse Software (Dr. Michael Pusch, Genova, Italy). Ba^2+-Ringer, consisting of 10 mM HEPES, 90 mM NaCl, 1 mM KCl, and 1.5 mM BaCl2, adjusted to pH 7.4, was used for TEVC measurements. Agonist solution containing 10 µM glycine and 10 µM (S)-glutamate was prepared in Ba^2+-Ringer, and the measurements were performed at a holding potential of − 70 mV, using electrodes with a glass capillary filled with 3 M KCl and a resistance between 0.5 and 1.5 MΩ. The compounds were tested by applying ascending concentrations, ranging from 1 to 30,000 nM, in at least six oocytes. Example traces for all recorded conditions can be found in Supplementary Figs. S2–S9.\n(§4) TEVC data were analyzed using Ana (Dr. Michael Pusch, Genova, Italy), and statistics were performed using OriginPro 2020 (OriginLab Corporation, Northampton, USA). The inhibitory effect of each compound is calculated using the following equation: inhibition=1-Ic-Ih/Ia-Ih where Ih describes the current in the absence of agonists; Ia represents the steady-state current in the presence of the agonists; and Ic is defined as the steady-state after binding of agonist and compound. All dose response curves are fitted to the following logistic equation: y=A1-A2/1+x/x0^p+A2 where A1 describes the minimal inhibition of a compound and was set to 0; A2 represents the maximal inhibition of a compound; p is the slope of the curve; x0 is defined as the concentration at half-maximal inhibition; and x is the tested concentration. Data were statistically analyzed by one-way ANOVA and Tukey post-hoc mean comparison test in OriginPro 2020 (OriginLab Corporation, Northampton, USA). p values are indicated by * for p < 0.05, ** for p < 0.01, and *** for p < 0.001."}, "[3]": {"molecular_target": "GluN1b wt/ GluN2B F176A (Rattus norvegicus, UniProt P35439+Q00960, F176A)", "sequence (Q00960 27-1482 F176A, other chains not shown)": "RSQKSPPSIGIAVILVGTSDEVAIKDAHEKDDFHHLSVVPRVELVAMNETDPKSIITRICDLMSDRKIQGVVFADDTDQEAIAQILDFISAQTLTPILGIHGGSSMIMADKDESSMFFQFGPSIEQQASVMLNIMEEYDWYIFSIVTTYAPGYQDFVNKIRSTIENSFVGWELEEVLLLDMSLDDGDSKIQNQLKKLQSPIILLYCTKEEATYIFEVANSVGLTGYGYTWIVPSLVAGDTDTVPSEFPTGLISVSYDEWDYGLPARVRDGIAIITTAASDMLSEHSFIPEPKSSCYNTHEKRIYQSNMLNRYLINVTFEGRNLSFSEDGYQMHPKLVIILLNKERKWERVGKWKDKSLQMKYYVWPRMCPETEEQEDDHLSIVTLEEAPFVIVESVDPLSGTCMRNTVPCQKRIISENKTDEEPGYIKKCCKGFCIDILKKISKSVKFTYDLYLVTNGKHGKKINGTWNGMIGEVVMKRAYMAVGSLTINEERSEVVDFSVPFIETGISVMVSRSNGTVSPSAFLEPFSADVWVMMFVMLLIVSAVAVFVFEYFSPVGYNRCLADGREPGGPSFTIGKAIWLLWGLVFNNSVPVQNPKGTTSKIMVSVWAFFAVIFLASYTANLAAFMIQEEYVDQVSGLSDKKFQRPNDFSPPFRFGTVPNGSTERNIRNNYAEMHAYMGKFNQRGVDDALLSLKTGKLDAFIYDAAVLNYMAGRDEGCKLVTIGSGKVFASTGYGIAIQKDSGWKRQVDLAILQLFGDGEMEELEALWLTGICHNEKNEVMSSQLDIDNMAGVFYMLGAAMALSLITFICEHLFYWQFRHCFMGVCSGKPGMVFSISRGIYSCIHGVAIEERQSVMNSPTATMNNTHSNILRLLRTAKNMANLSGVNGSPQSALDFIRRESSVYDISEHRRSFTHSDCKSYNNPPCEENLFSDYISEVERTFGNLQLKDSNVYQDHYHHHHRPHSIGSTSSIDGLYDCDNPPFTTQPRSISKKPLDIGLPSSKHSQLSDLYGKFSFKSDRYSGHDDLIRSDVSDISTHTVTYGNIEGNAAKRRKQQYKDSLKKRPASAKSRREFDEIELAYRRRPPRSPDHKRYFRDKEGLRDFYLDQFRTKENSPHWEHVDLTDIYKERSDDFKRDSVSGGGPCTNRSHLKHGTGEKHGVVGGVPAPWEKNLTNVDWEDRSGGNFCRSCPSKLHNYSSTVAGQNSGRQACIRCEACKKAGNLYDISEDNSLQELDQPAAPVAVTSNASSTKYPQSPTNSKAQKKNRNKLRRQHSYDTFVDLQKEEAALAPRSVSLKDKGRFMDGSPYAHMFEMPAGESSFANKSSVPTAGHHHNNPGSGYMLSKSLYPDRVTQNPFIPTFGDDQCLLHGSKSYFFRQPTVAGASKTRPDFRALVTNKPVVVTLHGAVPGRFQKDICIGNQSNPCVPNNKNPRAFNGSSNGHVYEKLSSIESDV", "assay": "TEVC recording in X. laevis oocytes, GluN2B mutant screening", "assay_type": "cell-based", "protocol": "as §1, §2, §3, §4"}, "[4]": {"molecular_target": "T1, GluN1-1a/GluN2B (Rattus norvegicus, UniProt P35439+Q00960)", "T1 construct": "eGFP; DsRed2 (C); expressed in transfected cells; host or cells: CHO cells (constructs a gift from Prof. Hollmann, Bochum)", "assay": "Single-channel patch clamp recordings (cell-attached) in CHO cells: open time, open channel probability", "assay_type": "cell-based", "conditions": "1 µM compound, without exon 5", "protocol": "(§5) Chinese hamster ovary (CHO) cells were co-transfected with GluN1-1a eGFP and GluN2B pDsRed2-N1 or GluN1-1b eGFP and GluN2B pDsRed2-N1. The constructs were a generous gift from Prof. Hollmann (Bochum, Germany). GluN1-1b eGFP was obtained by subcloning of GluN1-1b in eGFP using BssHII and BtrI. Single-channel patch clamp recordings were performed at room temperature using an Axopatch 200B amplifier (Molecular Devices, USA). The patch clamp experiments on cultured CHO cells were done using Clampex 10.7 software (Molecular Devices, USA). Single-channel recordings were performed in the cell-attached configuration. Borosilicate glass pipettes with a resistance of 2–3 MΩ were backfilled with internal solution, consisting of 125 mM NaCl, 3 mM KCl, 1.25 mM NaH2PO4, 0.85 mM CaCl2, and 20 mM HEPES, 100 nM (S)-glutamate, and 20 µM glycine, adjusted to pH 7.4. During the recordings, the cells were continuously flushed with external solution, consisting of 141 mM potassium gluconate, 2.5 mM NaCl, 11 mM EGTA, and 10 mM HEPES, adjusted to pH 7.4 by KOH. The antagonist solution was prepared by adding 1 µM (R)-OF-NB1. All solutions were adjusted to a DMSO concentration of 0.1%. NMDA currents were measured by clamping GluN1-1a/GluN2B or GluN1-1b/GluN2B wild-type expressing CHO cells at − 70 mV. […] Data analysis was performed and evaluated using Clampfit 10.7 (Molecular Devices, USA)."}, "[5]": {"molecular_target": "T2, GluN1-1b/GluN2B (Rattus norvegicus, UniProt P35439+Q00960)", "T2 construct": "eGFP; DsRed2 (C); expressed in transfected cells; host or cells: CHO cells", "assay": "Single-channel patch clamp recordings (cell-attached) in CHO cells: open time, open channel probability", "assay_type": "cell-based", "conditions": "1 µM compound, exon 5 present", "protocol": "as §5"}, "[6]": {"assay": "Solubility limit in TEVC compound solution", "assay_type": "physicochemical", "conditions": "higher concentrations could not be tested in TEVC"}, "[7]": {"conditions": "agonists 10 µM glycine + 10 µM (S)-glutamate"}},
  "data": [
    {"compound": "Oc1ccc2c(c1)CCN(CCCCc1ccccc1F)C[C@@H]2O", "note": "[(R)-OF-NB1]", "values": [
      {"measurement": "IC50", "setting": "[1]; [7]", "result": 6.58, "unit": "µM"},
      {"measurement": "Hill coefficient", "setting": "[1]", "result": 0.8},
      {"measurement": "IC50", "setting": "[2]; [7]", "result": 16.6, "unit": "µM"},
      {"measurement": "Hill coefficient", "setting": "[2]", "result": 0.4},
      {"measurement": "inhibition at 1 µM", "setting": "[3]; GluN1-1b/F176A, compound concentration 1 μM, single oocytes", "result": 17.7, "unit": "%"},
      {"measurement": "inhibition at 10 µM", "setting": "[3]; GluN1-1b/F176A, compound concentration 10 μM, single oocytes", "result": 29.9, "unit": "%"},
      {"measurement": "IC50", "setting": "[3]; agonists 10 µM glycine + 10 µM (S)-glutamate, fitted curve", "result": 13.6, "unit": "µM"},
      {"measurement": "Hill coefficient", "setting": "[3]; fitted curve", "result": 0.5},
      {"measurement": "effect on open time of NMDAR", "setting": "[4]", "result": "did not result in a significant reduction"},
      {"measurement": "effect on open time of NMDAR", "setting": "[5]", "result": "did not result in a significant reduction"},
      {"measurement": "solubility", "setting": "[6]", "result": 30, "unit": "µM"}
    ]}
  ]
}
